# Laboratory results as given in the RepoRT retention time repository (doi:10.1002/rcm.4015).
# Assay: RP, Thermo Scientific Hypersil GOLD, 5 × 2.1 mm, 1.9 µm, 45 °C, 0.25 mL/min, estimated dead time 0.044 min; A: water + 0.1% formic acid, pH 3; B: 50% acetonitrile + 50% isopropanol + 0.1% formic acid, pH 3; gradient (min/%B) 0/5 0.5/5 5/50 5.5/95 6.5/95 10/5
# Conditions: stereoisomer not certain
row,Compound,LC retention time
1,CCCCCC=CCC=CCC=CCC=CCCCC(=O)OC(COC(=O)CCCCCCCCCCCCC)COP(=O)([O-])OCC[N+](C)(C)C (stereo not given) [PC(34:4)],6.97 min
2,CCCCCC=CCC=CCC=CCC=CCCCC(=O)OC(COC(=O)CCCCCCCCCCCCCCC)COP(=O)(O)OCC[N+](C)(C)C (stereo not given) [PC(36:4)],7.43 min
3,CCCCCC=CCC=CCC=CCC=CCCCCCC(=O)OC(COC(=O)CCCCCCCCCCCCCCC)COP(=O)([O-])OCC[N+](C)(C)C (stereo not given) [PC(38:4)],7.4 min
4,CCC=CCC=CCC=CCC=CCC=CCC=CCCC(=O)OC(COC(=O)CCCCCC=CCCCCCCCC)COP(=O)([O-])OCC[N+](C)(C)C (stereo not given) [PC(38:7)],7.37 min
5,CCCCCCCCCCCCCC=CC(O)C(COP(=O)([O-])OCC[N+](C)(C)C)NC(=O)CCCCCCCCCCCCCC (stereo not given) [SM(33:1)],6.69 min
6,CCCCCCCCCCCCCC(=O)OCC(O)COP(=O)([O-])OCC[N+](C)(C)C (stereo not given) [lysoPC(14:0)],6.62 min
7,CCCCCC=CCC=CCCCCCCCC(=O)OCC(O)COP(=O)([O-])OCC[N+](C)(C)C (stereo not given) [lysoPC(18:2)],6.72 min
8,CCCCCCCCC=CCC=CCC=CCCCC(=O)OCC(O)COP(=O)([O-])OCC[N+](C)(C)C (stereo not given) [lysoPC(20:3)],6.8 min
9,CCCCCC=CCC=CCC=CCC=CCCCC(=O)OCC(O)COP(=O)([O-])OCC[N+](C)(C)C (stereo not given) [lysoPC(20:4)],6.69 min
10,CCCCCCCCCCCCCCCCOCC(O)COP(=O)([O-])OCC[N+](C)(C)C (stereo not given) [lysoPC(O-16:0)],7.08 min
11,CCCCCCCCCCCCCCCCCC(=O)OCC(O)COP(=O)(O)OCCN (stereo not given) [lysoPE(18:0)],6.75 min
12,CCCCCCCCC=CCCCCCCCC(=O)OCC(O)COP(=O)(O)OCCN (stereo not given) [lysoPE(18:1)],6.92 min
13,CCCCCC=CCC=CCC=CCC=CCCCC(=O)OCC(O)COP(=O)(O)OCCN (stereo not given) [lysoPE(20:4)],6.69 min

# More lines, now with the values ahead:
row,LC retention time,Compound
1,7.23 min,CCCCCCCCC=CCCCCCCCC(=O)OC(COC(=O)CCCCCCCCCCCCCCC)COP(=O)([O-])OCC[N+](C)(C)C (stereo not given) [PC(34:1)]
2,6.89 min,CCCCCC=CCC=CCCCCCCCCCC(=O)OC(COC(=O)CCCCCCCCCCCCC)COP(=O)([O-])OCC[N+](C)(C)C (stereo not given) [PC(34:2)]
3,7.4 min,CCC=CCC=CCC=CCCCCCCCC(=O)OC(COC(=O)CCCCCCCCCCCCCCC)COP(=O)([O-])OCC[N+](C)(C)C (stereo not given) [PC(34:3)]
4,7.38 min,CCCCCC=CCC=CCC=CCC=CCCCC(=O)OC(COC(=O)CCCCCC=CCCCCCCCC)COP(=O)([O-])OCC[N+](C)(C)C (stereo not given) [PC(36:5)]
5,7.4 min,CCCCCC=CCC=CCC=CCCCCC(=O)OCC(COP(=O)([O-])OCC[N+](C)(C)C)OC(=O)CCCCCCCCCCCCCCCCCCC (stereo not given) [PC(38:3)]
6,7.41 min,CCCCCC=CCC=CCC=CCC=CCC=CCCC(=O)OC(COC(=O)CCCCCCCCCCCCCCC)COP(=O)([O-])OCC[N+](C)(C)C (stereo not given) [PC(38:5)]
7,7.39 min,CCC=CCC=CCC=CCC=CCC=CCC=CCCC(=O)OC(COC(=O)CCCCCCCCCCCCCCC)COP(=O)([O-])OCC[N+](C)(C)C (stereo not given) [PC(38:6)]
8,7.4 min,CCCCCC=CCC=CCC=CCC=CCC=CCCC(=O)OC(COC(=O)CCCCCCCCCCCCCCCCC)COP(=O)([O-])OCC[N+](C)(C)C (stereo not given) [PC(40:5)]
9,7.14 min,CCC=CCC=CCC=CCC=CCC=CCC=CCCC(=O)OC(COC(=O)CCCCCCCCCCCCCCCCC)COP(=O)([O-])OCC[N+](C)(C)C (stereo not given) [PC(40:6)]
10,7.4 min,CCCCCC=CCC=CCC=CCC=CCCCCCC(=O)OCC(COP(=O)([O-])OCC[N+](C)(C)C)OC(=O)CCCCC=CCC=CCC=CCCCCC (stereo not given) [PC(40:7)]
11,6.89 min,CCCCCCCCCCCCCCCC(=O)OCC(O)COP(=O)([O-])OCC[N+](C)(C)C (stereo not given) [lysoPC(16:0)]
12,6.67 min,CCCCCCC=CCCCCCCCC(=O)OCC(O)COP(=O)([O-])OCC[N+](C)(C)C (stereo not given) [lysoPC(16:1)]
13,6.93 min,CCCCCCCCC=CCCCCCCCC(=O)OCC(O)COP(=O)([O-])OCC[N+](C)(C)C (stereo not given) [lysoPC(18:1)]
14,6.59 min,CCC=CCC=CCC=CCCCCCCCC(=O)OCC(O)COP(=O)([O-])OCC[N+](C)(C)C (stereo not given) [lysoPC(18:3)]
15,6.55 min,CCC=CCC=CCC=CCC=CCC=CCCCC(=O)OCC(O)COP(=O)([O-])OCC[N+](C)(C)C (stereo not given) [lysoPC(20:5)]
16,6.65 min,CCC=CCC=CCC=CCC=CCC=CCC=CCCC(=O)OCC(O)COP(=O)([O-])OCC[N+](C)(C)C (stereo not given) [lysoPC(22:6)]
17,7.1 min,CCCCCCCCC=CCCCCCCCCOCC(O)COP(=O)([O-])OCC[N+](C)(C)C (stereo not given) [lysoPC(O-18:1)]
